The values that follow come from patent publication US7091345B2, “Amino-substituted dihydropyrimido[4,5-D]pyrimidinone derivatives” (Hoffmann-La Roche Inc., priority 2002, dated 2006).

One data set has as its target T1, Lck (p56^lck) (Homo sapiens, UniProt P06239).
T1 construct: purchased Upstate (UBI)
In words: SRC-Inhibitor-Assay, time-resolved fluorescence kinase assay (Lck). The conditions noted are these: ATP 5 μM, enzyme 2.5 U/ml, pre-incubation 15 min at 15° C. It counts as biochemical. The protocol: (§1) The activity of the compounds according to this invention as inhibitors for the src-family tyrosine kinases was shown by using the following assay.
(§2) SRC-Inhibitor-Assay Parameters:
(§3) Assay buffer: 4 mM MgCl2 • 2 mM TCEP • 50 mM HEPES • 0,1% Tween 20 • pH 7.3
(§4) Material: Eu-labelled phosphotyrosine antibody:—for Lck Cisbio Mab PT66-K, for Src EG&G Wallac PT66 Eu-W1024 (all commercially available). Peptides: Ro: NH2-A-E-E-E-I-Y-G-E-F-E-A-K-K-K-K-CONH2, and Ja133-Ro: Ja133-G-Aminocaprylic acid-A-E-E-E-I-Y-G-E-F-E-A-K-K-K-K-CONH2, wherein Ja133 is LightCycler-Red 640-N-hydroxy succinimide ester; whereby both peptides were synthesized by an optimized solid phase peptide synthesis protocol (Merrifield, Fed. Proc. Fed. Amer. Soc. Exp. Biol. 21 (1962) 412) on a Zinsser SMP350 peptide synthesizer. Shortly, the peptide was assembled on 160 mg (22.8 μmol scale) of a Rink-Linker modified polystyrene solid phase by repeatedly conjugating an twenty fold excess of amino acids each protected by temporary piperidine labile Fmoc- and permanent acid labile tert-Bu-, BOC— and Otert-Bu-groups depending on the side chain function. The substrate sequence AEEEIYGEFEAKKKK was N-terminal additionally mounted with the spacer amino acids Aminocaprylic acid and Glycin. After cleavage of the N-terminal temporary protecting group the still attached and protected peptide was labeled with a 1.5 fold amount of LightCycler-Red 640-N-hydroxy succinimide ester (purchased by Roche Diagnostics GmbH) and triethylamine. After 3 hrs. the resin was washed with Dimethylformamide and Isopropanol until the eluates of the blue resin got colourless. […] The substrate was finally isolated by a preparative reverse phase HPLC purification. The purification yielded 12.2 mg RP-HPLC single peak pure blue material (lyophilisate). The identity was proven by MALDI mass spectroscopy [2720.0]. Enzymes: Upstate Lck (p56^lck, active), Upstate Src (p60^c-src, partially purified) were purchased from UBI. Time-resolved Fluorescence Assay: Reader: Perkin Elmer, Wallac Viktor 1420-040 multilabel counter; Liquid handling system: Beckman Coulter, Biomek 2000. ATP, Tween 20, HEPES were purchased from Roche Molecular Biochemicals, MgCl2 and MnCl2 were purchased from Merck Eurolab, TCEP was purchased from Pierce, 384 Well low volume fluorescence plates was purchased from Falcon. Assay Description:
(§5) At first the enzyme is pre-incubated for 15 min. at 15° C. in aqueous solution with corresponding amounts of inhibitors according to this invention. Then the phosphorylation reaction is started by adding a reaction mixture, containing ATP, Peptide and PT66, and subsequent shaking. The proceeding of this reaction is immediately monitored using time resolved fluorescence spectroscopy in a suitable well plate reader.
(§6) The IC50-values can be obtained from the reaction rates by using a non-linear curve fit (Excelfit).

A short description of data set [1]: Pharmacokinetic study in mice, plasma levels after single p.o. dose. It counts as in vivo. The conditions noted are these: male NMRI mice, p.o. single dose 30 mg/kg as micro-suspension, dose-normalised. The protocol:
A preferred pharmaceutical preparation was obtained by using the following procedure: • 1. Weigh 4.0 g glass beads in custom made tube GL 25, 4 cm (the beads fill half of the tube). • 2. Add 50 mg compound, disperse with spatulum and vortex. • 3. Add 2 ml gelatin solution (weight beads: gelatin solution=2:1) and vortex. • 4. Cap and wrap in aluminium foil for light protection. • 5. Prepare a counter balance for the mill. • 6. Mill for 4 hours, 20/s in a Retsch mill (for some substances up to 24 hours at 30/s). • 7. Extract suspension from beads with two layers of filter (100 μm) on a filter holder, coupled to a recipient vial by centrifugation at 400 g for 2 min. • 8. Move extract to measuring cylinder. • 9. Repeat washing with small volumes (here 1 ml steps) until final volume is reached or extract is clear. • 10. Fill up to final volume with gelatin and homogenise.
The above described preparation yields micro-suspensions of the compounds of formula I with particle sizes between 1 and 10 μm. The suspensions are suitable for oral applications and were used in the in vivo pharmacokinetic testings described below.
To male NMRI mice of 29–35 g body weight the compounds according to this invention were given p.o. as micro-suspensions (7.5% modified gelatine and 0.22% NaCl) in doses of 30 mg/kg (Drug concentration: 3 mg/mL. Administered volume: 10 mL/kg) and as single dose administration. Study Protocol:
Animals were fasted overnight up to 4 hrs. after administration of the compound. For each single p.o. dose the mice were allocated to 3 groups with 4 animals each. Blood samples are taken from group 1 at 0.5, 3 and 24 hours, from group 2 at 1 and 6 hours, and from group 3 at 2 and 8 hours.
Blood samples of about 200 μl were obtained by retro-orbital puncture. Plasma samples were obtained from heparinized/EDTA blood by centrifugation at room temperature, and stored frozen at −20° C. until analysis.
Plasma was deproteinated and subsequently analysed for plasma levels of the compound by a compound specific HPLC-MS method. WinNonlin™ was used to calculate the pharmacokinetic parameters.

Another data set concerns the target T2, Src (p60^c-src) (Homo sapiens, UniProt P12931).
T2 construct: purchased Upstate (UBI)
As to the kind of experiment: SRC-Inhibitor-Assay, time-resolved fluorescence kinase assay (Src). The format is biochemical. The conditions noted are these: ATP 5 μM, enzyme 2.5 U/ml, pre-incubation 15 min at 15° C. The protocol: as §1, §2, §3, §4, §5, §6

Where two headings read alike, the source gives them in different places.

T2 sequence (P12931 whole entry): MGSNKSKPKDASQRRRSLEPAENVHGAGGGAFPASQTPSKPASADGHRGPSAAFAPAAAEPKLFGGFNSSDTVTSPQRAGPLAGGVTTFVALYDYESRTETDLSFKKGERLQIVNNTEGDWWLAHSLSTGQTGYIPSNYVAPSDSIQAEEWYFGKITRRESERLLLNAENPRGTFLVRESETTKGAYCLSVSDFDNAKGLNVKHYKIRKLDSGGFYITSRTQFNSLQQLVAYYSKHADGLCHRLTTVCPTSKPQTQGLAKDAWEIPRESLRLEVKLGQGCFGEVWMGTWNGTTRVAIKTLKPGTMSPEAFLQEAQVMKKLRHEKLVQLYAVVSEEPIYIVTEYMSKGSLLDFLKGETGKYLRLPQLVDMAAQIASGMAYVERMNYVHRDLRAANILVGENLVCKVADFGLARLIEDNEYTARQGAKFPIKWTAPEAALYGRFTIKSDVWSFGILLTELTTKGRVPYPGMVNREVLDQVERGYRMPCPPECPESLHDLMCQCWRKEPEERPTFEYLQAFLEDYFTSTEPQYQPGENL
T1 sequence (P06239 whole entry, species assumed): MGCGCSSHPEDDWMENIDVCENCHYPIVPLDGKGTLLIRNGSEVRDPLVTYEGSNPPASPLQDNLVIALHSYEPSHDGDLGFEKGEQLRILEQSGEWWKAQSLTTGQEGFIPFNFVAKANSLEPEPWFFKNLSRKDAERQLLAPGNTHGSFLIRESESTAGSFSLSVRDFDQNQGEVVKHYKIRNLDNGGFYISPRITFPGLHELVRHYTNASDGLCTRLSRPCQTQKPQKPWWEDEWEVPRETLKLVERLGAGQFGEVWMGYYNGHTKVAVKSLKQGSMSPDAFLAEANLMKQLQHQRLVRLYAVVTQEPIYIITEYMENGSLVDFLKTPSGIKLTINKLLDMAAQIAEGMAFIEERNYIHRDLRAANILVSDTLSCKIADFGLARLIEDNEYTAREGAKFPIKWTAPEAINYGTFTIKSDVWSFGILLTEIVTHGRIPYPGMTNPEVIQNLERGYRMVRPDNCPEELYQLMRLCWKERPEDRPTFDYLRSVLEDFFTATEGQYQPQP

Regarding `CN1C(=O)N(c2ccccc2Br)Cc2cnc(Nc3ccc4c(c3)OCC(CO)O4)nc21` (stereo not drawn) [Example 1, 3-(2-bromo-phenyl)-7-(2-hydroxymethyl-2,3-dihydro-benzo[1,4]dioxin-6-ylamino)-1-methyl-3,4-dihydro-1H-pyrimido[4,5-d]pyrimidin-2-one], the melting point (in general, the temperature of the solid-liquid transition) was 156 to 158 °C. Besides, the IC50 at Lck (p56^lck) (read-out: IC 50 (lck)) was found to be 6.3 nM. Also, the “AUC = area under the curve from T = 0 to T = 24 hrs” value (shortened to “AUC = area under the curve”) in data set [1] is on record as 379 (h * ng/ml))/(mg/kg). In addition, the IC50 on Src (p60^c-src) (read-out: IC 50 (src)) came out at 7.5 nM.

With `CN1C(=O)N(c2ccccc2Br)Cc2cnc(Nc3ccc4c(c3)OC3(CCNCC3)O4)nc21` [Example 7, 3-(2-bromo-phenyl)-3,4-dihydro-7-(spiro[1,3-benzodioxolo-2,4′-piperidine]-5-yl)amino-1-methyl-pyrimido[4,5-d]pyrimidin-2(1H)-one], the IC50 came to 2.4 nM against Lck (p56^lck) (IC 50 (lck)) and 2 nM against Src (p60^c-src) (IC 50 (src)). The “AUC = area under the curve” value in data set [1] is 813 (h * ng/ml))/(mg/kg).

`CN1C(=O)CSc2cc(Nc3ncc4c(n3)N(C)C(=O)N(c3c(F)cccc3Br)C4)ccc21` [Example 13-12, 3-(2-bromo-6-fluoro-phenyl)-1-methyl-7-(4-methyl-3-oxo-3,4-dihydro-2H-benzo[1,4]thiazin-7-ylamino)-3,4-dihydro-1H-pyrimido[4,5-d]pyrimidin-2-one] showed a melting point of 145 to 149 °C. For the same compound, the IC50 at Lck (p56^lck) (read-out: IC 50 (lck)) came out at 14 nM. Also, in data set [1], the “AUC = area under the curve” value was 592 (h * ng/ml))/(mg/kg). Moreover, the IC50 at Src (p60^c-src) (read-out: IC 50 (src)) is 4.2 nM.

With `CN1C(=O)N(c2ccccc2Br)Cc2cnc(Nc3ccc4c(c3)OCC(CN3CCCC3)O4)nc21` (stereo not drawn) [Example 13-21, 3-(2-bromo-phenyl)-1-methyl-7-(2-pyrrolidin-1-ylmethyl-2,3-dihydro-benzo[1,4]dioxin-6-ylamino)-3,4-dihydro-1H-pyrimido[4,5-d]pyrimidin-2-one], the melting point is 201 to 203 °C. For the same compound, the “AUC = area under the curve” value in data set [1] is given as 120 (h * ng/ml))/(mg/kg).

For the compound `CN1CCS(=O)(=O)c2cc(Nc3ncc4c(n3)N(C)C(=O)N(c3ccccc3Br)C4)ccc21` [Example 13-26, 3-(2-bromo-phenyl)-1-methyl-7-(4-methyl-1,1-dioxo-1,2,3,4-tetrahydro-1lambda*6*-benzo[1,4]thiazin-7-ylamino)-3,4-dihydro-1H-pyrimido[4,5-d]pyrimidin-2-one], the melting point was 250 to 251 °C.

Regarding `CN1C(=O)N(c2c(F)cccc2Br)Cc2cnc(Nc3ccc4c(c3)OC3(CCNCC3)O4)nc21` [Example 13-46, 3-(2-bromo-6-fluoro-phenyl)-3,4-dihydro-7-(spiro[1,3-benzodioxolo-2,4′-piperidine]-5-yl)amino-1-methyl-pyrimido[4,5-d]pyrimidin-2(1H)-one], the melting point fell in the range of 146 to 153 °C. In addition, on Lck (p56^lck) (IC 50 (lck)), the IC50 is 2.6 nM. Besides, the “AUC = area under the curve” value in data set [1] was 234 (h * ng/ml))/(mg/kg). The same compound came in with an IC50 on Src (p60^c-src) (IC 50 (src)) of 2.3 nM.
